Measurements: US9113629B2, “4-amino-6-(4-substituted-phenyl)-picolinates and 6-amino-2-(4-substituted-phenyl)-pyrimidine-4-carboxylates and their use as herbicides” (DOW AGROSCIENCES LLC, priority 2013, dated 2015)
Where two headings read alike, the source gives them in different places.

Assays:
[1] = test system: Key Grass and Sedge Weeds as well as Grass Crops; assay: Post-emergent Test II herbicidal activity (Table 6); format: in vivo; conditions: post-emergence, 336 h; for pest or weed control at 70 g/ha: application rate 70 g ai/ha; for pest or weed control at 140 g/ha: application rate 140 g ai/ha
Outline: (§1)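 Greenhouse post-emergent assay: seedlings (first/second true leaf) in Metro-Mix 360 were sprayed at 187 L/ha at a top rate plus twofold dilutions down to 1/16×; solvent-blank controls were included. Percent visual injury was read at 14 d.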

[2] = test system: Key Broadleaf Weed and Crop Species; assay: Post-emergent Test II herbicidal activity (Table 5); format: in vivo; conditions: post-emergence, 336 h, post-emergent, 14 days after application; for pest or weed control at 70 g/ha: 70 g ai/ha; for pest or weed control at 140 g/ha: 140 g ai/ha
Outline: as §1

[3] = Triticum aestivum, TRZSS (wheat), read-out: Visual Growth Reduction (%) 14 Days After Application, TRZSS
[4] = CYPES: yellow nutsedge (Cyperus esculentus), read-out: Visual Growth Reduction (%) 14 Days After Application, CYPES
[5] = DIGSA: crabgrass (Digitaria sanguinalis), read-out: Visual Growth Reduction (%) 14 Days After Application, DIGSA
[6] = ECHCG: barnyardgrass (Echinochloa crus-galli), read-out: Visual Growth Reduction (%) 14 Days After Application, ECHCG
[7] = ORYSA: rice (Oryza sativa), read-out: Visual Growth Reduction (%) 14 Days After Application, ORYSA
[8] = SETFA: giant foxtail (Setaria faberi), read-out: Visual Growth Reduction (%) 14 Days After Application, SETFA
[9] = SORVU: grain sorghum (Sorghum vulgare), read-out: Visual Growth Reduction (%) 14 Days After Application, SORVU
[10] = ZEAMX: maize, corn (Zea mays), read-out: Visual Growth Reduction (%) 14 Days After Application, ZEAMX
[11] = ABUTH: velvetleaf (Abutilon theophrasti), read-out: Visual Growth Reduction (%) 14 Days After Application ABUTH
[12] = AMARE: redroot pigweed (Amaranthus retroflexus), read-out: Visual Growth Reduction (%) 14 Days After Application AMARE
[13] = BRSNN: oilseed-rape, canola (Brassica napus), read-out: Visual Growth Reduction (%) 14 Days After Application BRSNN
[14] = CHEAL: lambsquarters (Chenopodium album), read-out: Visual Growth Reduction (%) 14 Days After Application CHEAL
[15] = EPHHL: wild poinsettia (Euphorbia heterophylla), read-out: Visual Growth Reduction (%) 14 Days After Application EPHHL
[16] = HELAN: sunflower (Helianthus annuus), read-out: Visual Growth Reduction (%) 14 Days After Application HELAN
[17] = VIOTR: wild pansy (Viola tricolor), read-out: Visual Growth Reduction (%) 14 Days After Application VIOTR

Q: For `C=Cc1c(C(=O)OC)nc(-c2ccc(C#N)cc2)c(F)c1N` [Compound 107, methyl 4-amino-6-(4-cyanophenyl)-5-fluoro-3-vinylpicolinate], which pest or weed control at 70 g/ha [1, 3] is on record?
A: 0 to 29%

Q: What about the pest or weed control at 140 g/ha [1, 3] of the same compound?
A: 0 to 29%

Q: What about the pest or weed control at 70 g/ha [1, 4] of the same compound?
A: 0 to 29%

Q: And the pest or weed control at 140 g/ha [1, 4]?
A: 60 to 74%

Q: And the pest or weed control at 70 g/ha [1, 5]?
A: 0 to 29%

Q: And the pest or weed control at 140 g/ha [1, 5]?
A: 0 to 29%

Q: And the pest or weed control at 70 g/ha [1, 6]?
A: 0 to 29%

Q: And the pest or weed control at 140 g/ha [1, 6]?
A: 0 to 29%

Q: What about the pest or weed control at 70 g/ha [1, 7] of the same compound?
A: 0 to 29%

Q: And the pest or weed control at 140 g/ha [1, 7]?
A: 0 to 29%

Q: And the pest or weed control at 70 g/ha [1, 8]?
A: 0 to 29%

Q: And the pest or weed control at 140 g/ha [1, 8]?
A: 0 to 29%

Q: And the pest or weed control at 70 g/ha [1, 9]?
A: 0 to 29%

Q: What about the pest or weed control at 140 g/ha [1, 9] of the same compound?
A: 0 to 29%

Q: What about the pest or weed control at 70 g/ha [1, 10] of the same compound?
A: 0 to 29%

Q: What about the pest or weed control at 140 g/ha [1, 10] of the same compound?
A: 0 to 29%

Q: What about the pest or weed control at 70 g/ha [2, 11] of the same compound?
A: 75 to 84%

Q: And the pest or weed control at 140 g/ha [2, 11]?
A: 75 to 84%

Q: And the pest or weed control at 70 g/ha [2, 12]?
A: 0 to 29%

Q: What about the pest or weed control at 140 g/ha [2, 12] of the same compound?
A: 0 to 29%

Q: And the pest or weed control at 70 g/ha [2, 13]?
A: 0 to 29%

Q: And the pest or weed control at 140 g/ha [2, 13]?
A: 0 to 29%

Q: And the pest or weed control at 70 g/ha [2, 14]?
A: 95 to 100%

Q: And the pest or weed control at 140 g/ha [2, 14]?
A: 95 to 100%

Q: What about the pest or weed control at 70 g/ha [2, 15] of the same compound?
A: 95 to 100%

Q: What about the pest or weed control at 140 g/ha [2, 15] of the same compound?
A: 95 to 100%

Q: And the pest or weed control at 70 g/ha [2, 16]?
A: 75 to 84%

Q: What about the pest or weed control at 140 g/ha [2, 16] of the same compound?
A: 85 to 94%

Q: What about the pest or weed control at 70 g/ha [2, 17] of the same compound?
A: 0 to 29%

Q: And the pest or weed control at 140 g/ha [2, 17]?
A: 0 to 29%
